From the supplement of paper PMC12463676, “Small-molecule dissolution of stress granules by redox modulation benefits ALS models” (Nature Chemical Biology, 2025)

Assays:
[1] = compound: NC(=O)CCCCC1CCSS1 [lipoamide]; experiment: thermal stability z-score vs DMSO; higher = more thermally stabilized by treatment; settings: HeLa, lipoamide concentration 100 µM
Description: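 Cellular thermal proteome profiling in HeLa cells. Cells were treated with 100 µM lipoamide for 1 h, with or without 1 mM arsenate for a further 1 h, then heated to ten temperatures (37-66.3 °C), and soluble protein was quantified by TMT mass spectrometry relative to 0.1% DMSO controls. The thermal stability score (sum of log2 fold changes minus the abundance score) was transformed to a z-score; mean of n = 3 experiments.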

[2] = compound: O=[As]([O-])(O)O.[K+] [potassium arsenate]; experiment: as above; settings: HeLa; arsenate concentration 1 mM
Description: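 Cellular thermal proteome profiling in HeLa cells treated with 1 mM arsenate for 1 h (DMSO pretreatment), heated to ten temperatures (37-66.3 °C). Soluble protein was quantified by TMT mass spectrometry relative to DMSO controls; the thermal stability score was transformed to a z-score; mean of n = 3 experiments.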

[3] = arsenate co-treatment: 1 mM arsenate 1 h
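Further: each temperature applied for 3 min, abundance score taken as mean log2 fold change at the two lowest temperatures, z-score obtained by mean subtraction and division by SD.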

Chain of UniProt Q9Y6N5 (Q9Y6N5 whole entry, looked up): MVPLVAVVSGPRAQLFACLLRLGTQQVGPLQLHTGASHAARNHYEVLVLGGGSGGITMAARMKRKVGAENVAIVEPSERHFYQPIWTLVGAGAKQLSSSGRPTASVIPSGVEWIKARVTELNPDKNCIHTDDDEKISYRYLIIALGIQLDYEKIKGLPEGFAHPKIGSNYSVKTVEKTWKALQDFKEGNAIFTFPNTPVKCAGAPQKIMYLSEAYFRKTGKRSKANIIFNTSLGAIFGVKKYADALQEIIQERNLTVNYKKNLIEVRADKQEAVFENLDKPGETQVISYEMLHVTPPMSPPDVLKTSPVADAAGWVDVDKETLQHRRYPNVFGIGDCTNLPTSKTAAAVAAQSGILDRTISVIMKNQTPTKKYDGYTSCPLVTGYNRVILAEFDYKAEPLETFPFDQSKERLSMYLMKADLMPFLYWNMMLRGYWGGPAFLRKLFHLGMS
Chain of UniProt Q96CS2 (Q96CS2 whole entry): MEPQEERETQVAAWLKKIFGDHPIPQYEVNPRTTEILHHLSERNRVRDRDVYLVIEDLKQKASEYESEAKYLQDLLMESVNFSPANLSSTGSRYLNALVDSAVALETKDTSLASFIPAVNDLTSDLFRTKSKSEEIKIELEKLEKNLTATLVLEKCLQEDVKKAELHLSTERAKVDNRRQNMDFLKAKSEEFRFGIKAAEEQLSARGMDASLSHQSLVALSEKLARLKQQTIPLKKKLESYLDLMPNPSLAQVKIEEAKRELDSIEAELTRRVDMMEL
Chain of UniProt Q99615 (Q99615 whole entry): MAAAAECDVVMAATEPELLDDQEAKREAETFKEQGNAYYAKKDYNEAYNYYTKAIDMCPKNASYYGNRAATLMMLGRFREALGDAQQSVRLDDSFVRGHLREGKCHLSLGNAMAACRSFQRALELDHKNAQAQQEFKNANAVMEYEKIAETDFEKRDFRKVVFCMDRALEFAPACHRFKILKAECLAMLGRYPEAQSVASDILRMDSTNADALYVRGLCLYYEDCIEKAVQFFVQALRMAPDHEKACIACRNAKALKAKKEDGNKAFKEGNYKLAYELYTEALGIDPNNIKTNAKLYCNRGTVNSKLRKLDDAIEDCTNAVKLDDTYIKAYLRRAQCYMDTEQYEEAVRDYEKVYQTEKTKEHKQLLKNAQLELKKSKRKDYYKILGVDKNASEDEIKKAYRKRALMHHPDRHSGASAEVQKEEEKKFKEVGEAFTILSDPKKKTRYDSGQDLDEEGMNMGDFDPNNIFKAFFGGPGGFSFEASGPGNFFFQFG
Chain of UniProt Q12788 (Q12788 whole entry): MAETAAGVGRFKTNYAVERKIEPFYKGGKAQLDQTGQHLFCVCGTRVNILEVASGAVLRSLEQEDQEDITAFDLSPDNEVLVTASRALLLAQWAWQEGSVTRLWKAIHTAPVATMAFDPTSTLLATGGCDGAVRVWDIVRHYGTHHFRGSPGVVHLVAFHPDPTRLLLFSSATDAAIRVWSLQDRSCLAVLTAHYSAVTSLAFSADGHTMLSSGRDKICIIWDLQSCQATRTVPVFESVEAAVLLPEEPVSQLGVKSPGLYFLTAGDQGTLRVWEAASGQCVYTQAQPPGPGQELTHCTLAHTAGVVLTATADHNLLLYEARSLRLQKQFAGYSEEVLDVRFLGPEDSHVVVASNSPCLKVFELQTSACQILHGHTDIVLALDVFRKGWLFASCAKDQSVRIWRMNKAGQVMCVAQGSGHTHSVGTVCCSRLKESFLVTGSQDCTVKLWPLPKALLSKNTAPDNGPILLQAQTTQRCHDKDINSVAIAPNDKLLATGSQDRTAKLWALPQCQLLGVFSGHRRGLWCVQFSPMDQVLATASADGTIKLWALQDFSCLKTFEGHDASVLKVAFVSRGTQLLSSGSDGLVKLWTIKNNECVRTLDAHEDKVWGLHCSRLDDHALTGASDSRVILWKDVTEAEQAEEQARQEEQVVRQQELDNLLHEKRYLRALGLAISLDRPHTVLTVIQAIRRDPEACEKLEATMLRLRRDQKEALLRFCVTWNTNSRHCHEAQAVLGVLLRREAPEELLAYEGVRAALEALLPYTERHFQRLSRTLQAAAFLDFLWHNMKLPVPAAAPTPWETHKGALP
Chain of UniProt Q9NVE7 (Q9NVE7 whole entry): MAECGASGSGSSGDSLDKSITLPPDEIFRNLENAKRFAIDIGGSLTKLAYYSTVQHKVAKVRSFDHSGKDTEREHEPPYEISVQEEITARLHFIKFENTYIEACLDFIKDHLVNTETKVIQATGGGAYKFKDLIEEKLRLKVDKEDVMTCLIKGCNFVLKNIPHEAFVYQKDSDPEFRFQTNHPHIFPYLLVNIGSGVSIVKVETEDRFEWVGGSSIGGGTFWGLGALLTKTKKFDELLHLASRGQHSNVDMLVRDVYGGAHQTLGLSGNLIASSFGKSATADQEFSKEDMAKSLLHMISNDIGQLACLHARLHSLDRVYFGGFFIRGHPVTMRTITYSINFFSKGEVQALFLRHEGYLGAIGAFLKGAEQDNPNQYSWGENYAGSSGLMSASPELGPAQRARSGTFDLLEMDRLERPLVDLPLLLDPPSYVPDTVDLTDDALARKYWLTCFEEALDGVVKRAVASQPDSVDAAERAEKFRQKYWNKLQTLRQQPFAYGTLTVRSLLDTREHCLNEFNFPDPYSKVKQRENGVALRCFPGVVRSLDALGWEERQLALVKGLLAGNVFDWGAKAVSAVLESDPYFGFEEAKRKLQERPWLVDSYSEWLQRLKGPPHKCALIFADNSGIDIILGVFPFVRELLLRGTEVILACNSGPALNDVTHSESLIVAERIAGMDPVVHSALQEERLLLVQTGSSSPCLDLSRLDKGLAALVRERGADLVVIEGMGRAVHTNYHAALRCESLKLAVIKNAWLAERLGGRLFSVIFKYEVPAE
Chain of UniProt Q9BZL6 (Q9BZL6 whole entry): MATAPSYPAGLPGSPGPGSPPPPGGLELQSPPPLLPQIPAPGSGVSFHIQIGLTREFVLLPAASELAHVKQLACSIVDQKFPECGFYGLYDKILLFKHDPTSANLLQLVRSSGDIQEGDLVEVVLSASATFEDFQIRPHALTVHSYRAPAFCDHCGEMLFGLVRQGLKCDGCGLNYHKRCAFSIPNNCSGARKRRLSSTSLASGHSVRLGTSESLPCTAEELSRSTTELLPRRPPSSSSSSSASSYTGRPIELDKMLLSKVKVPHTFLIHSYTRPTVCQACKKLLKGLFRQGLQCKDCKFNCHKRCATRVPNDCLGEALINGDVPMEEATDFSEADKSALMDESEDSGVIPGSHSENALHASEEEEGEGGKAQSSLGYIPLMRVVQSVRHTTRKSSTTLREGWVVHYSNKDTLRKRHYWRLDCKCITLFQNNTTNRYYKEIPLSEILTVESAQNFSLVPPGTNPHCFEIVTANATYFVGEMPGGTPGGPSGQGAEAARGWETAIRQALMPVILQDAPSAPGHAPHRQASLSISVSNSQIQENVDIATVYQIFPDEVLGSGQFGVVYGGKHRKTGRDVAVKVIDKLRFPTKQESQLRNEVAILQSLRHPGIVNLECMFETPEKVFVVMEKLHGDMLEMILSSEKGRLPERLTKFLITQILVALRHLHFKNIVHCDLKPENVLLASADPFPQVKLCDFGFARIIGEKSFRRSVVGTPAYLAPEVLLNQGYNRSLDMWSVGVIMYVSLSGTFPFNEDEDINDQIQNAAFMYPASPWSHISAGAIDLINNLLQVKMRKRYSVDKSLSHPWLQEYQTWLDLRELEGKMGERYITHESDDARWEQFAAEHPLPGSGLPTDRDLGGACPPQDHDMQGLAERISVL
Chain of UniProt Q92688 (Q92688 whole entry): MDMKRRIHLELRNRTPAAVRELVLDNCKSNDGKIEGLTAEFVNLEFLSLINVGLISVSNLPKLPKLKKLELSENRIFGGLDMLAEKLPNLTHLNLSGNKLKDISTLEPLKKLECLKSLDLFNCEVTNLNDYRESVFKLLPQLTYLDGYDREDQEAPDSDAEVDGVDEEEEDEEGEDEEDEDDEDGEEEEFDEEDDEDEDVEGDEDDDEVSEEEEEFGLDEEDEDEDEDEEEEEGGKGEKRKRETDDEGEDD
Chain of UniProt Q9UNP9 (Q9UNP9 whole entry): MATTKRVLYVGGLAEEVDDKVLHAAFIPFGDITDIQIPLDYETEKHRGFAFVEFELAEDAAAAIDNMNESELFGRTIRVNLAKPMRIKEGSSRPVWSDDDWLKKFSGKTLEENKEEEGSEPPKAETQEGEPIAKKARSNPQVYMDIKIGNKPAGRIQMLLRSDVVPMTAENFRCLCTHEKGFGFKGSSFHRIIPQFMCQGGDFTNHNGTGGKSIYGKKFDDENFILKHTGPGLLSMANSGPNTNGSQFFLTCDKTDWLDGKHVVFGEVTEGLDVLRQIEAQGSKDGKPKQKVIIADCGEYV
Chain of UniProt Q13907 (Q13907 whole entry): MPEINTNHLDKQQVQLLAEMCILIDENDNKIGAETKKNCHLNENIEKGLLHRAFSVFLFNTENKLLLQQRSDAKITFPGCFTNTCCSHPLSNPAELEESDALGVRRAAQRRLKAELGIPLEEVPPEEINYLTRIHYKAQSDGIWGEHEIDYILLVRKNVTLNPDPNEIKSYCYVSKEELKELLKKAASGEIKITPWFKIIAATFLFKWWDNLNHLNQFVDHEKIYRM
Chain of UniProt Q3KQZ1 (Q3KQZ1 whole entry): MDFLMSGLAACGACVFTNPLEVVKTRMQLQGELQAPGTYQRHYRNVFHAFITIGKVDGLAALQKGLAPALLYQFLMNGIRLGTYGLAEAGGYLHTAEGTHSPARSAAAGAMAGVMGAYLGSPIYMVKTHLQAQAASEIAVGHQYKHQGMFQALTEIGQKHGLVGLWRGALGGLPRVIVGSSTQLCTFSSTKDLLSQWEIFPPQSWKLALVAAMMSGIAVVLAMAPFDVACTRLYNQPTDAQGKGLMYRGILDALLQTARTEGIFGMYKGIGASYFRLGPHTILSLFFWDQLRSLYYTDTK
Chain of UniProt P14621 (P14621 whole entry): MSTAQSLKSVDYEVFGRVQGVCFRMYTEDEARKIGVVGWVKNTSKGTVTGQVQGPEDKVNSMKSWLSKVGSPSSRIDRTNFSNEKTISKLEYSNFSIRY

Target	thermal stability z-score [1, 3]	thermal stability z-score ([1]; arsenate co-treatment: none)	thermal stability z-score [2]
DNPEP (UniProt Q9ULA0)	-0.183	0.0127	0.248
FBXO45 (UniProt P0C2W1)	0.369	0.292	0.229
TWF1 (UniProt Q12792)	0.503	0.245	-0.412
AFAP1 (UniProt Q8N556)	0.411	-0.0977	-0.957
COG5 (UniProt Q9UP83)	-0.297	-0.0509	0.793
FA2H (UniProt Q7L5A8)	-0.355	0.132	-0.327
VPS37B (UniProt Q9H9H4)	-0.0126	0.246	-0.0299
MED24 (UniProt O75448)	0.0619	-0.0126	-0.0686
FAM20B (UniProt O75063)	-1.35	-1.05	0.335
MVP (UniProt Q14764)	0.484	0.37	1.08
LLGL1 (UniProt Q15334)	-0.455	-0.324	-0.755
USP11 (UniProt P51784)	-0.0801	-0.162	0.143
ITGA1 (UniProt P56199)	0.216	0.171	-0.126
WDR74 (UniProt Q6RFH5)	-1.21	-0.713	-0.205
PAWR (UniProt Q96IZ0)	0.873	0.657	0.349
NPEPPS (UniProt P55786)	0.502	0.202	0.725
ASCC3 (UniProt Q8N3C0)	-0.289	-0.167	-0.277
VPS33A (UniProt Q96AX1)	-0.0394	-0.0312	-0.027
EIF2B2 (UniProt P49770)	1.07	0.55	0.643
HOOK3 (UniProt Q86VS8)	-0.807	-0.326	-0.272
TOR1AIP1 (UniProt Q5JTV8)	-2.27	-2.09	-0.146
PRKD2 (UniProt Q9BZL6)	-0.0965	-0.0785	-0.232
AQR (UniProt O60306)	0.37	0.297	-0.643
TBL3 (UniProt Q12788)	0.0946	-0.105	-0.338

Target	thermal stability z-score [1, 3]	thermal stability z-score ([1]; arsenate co-treatment: none)	thermal stability z-score [2]
PPIE (UniProt Q9UNP9)	0.246	0.0366	0.128
PIGO (UniProt Q8TEQ8)	-1.23	-1.1	-0.779
DDX28 (UniProt Q9NUL7)	-0.0583	0.0995	0.0334
RANBP6 (UniProt O60518)	-0.296	-0.155	-0.131
CCNB2 (UniProt O95067)	0.346	-0.108	0.36
MYH9 (UniProt P35579)	0.442	0.363	0.2
SNF8 (UniProt Q96H20)	-0.129	-0.418	-0.156
CHD4 (UniProt Q14839)	0.305	0.561	-0.759
MRPL15 (UniProt Q9P015)	-0.144	-0.0219	-0.33
ANP32B (UniProt Q92688)	-0.711	-0.129	-0.513
ACYP2 (UniProt P14621)	0.611	0.261	-0.0225
PRUNE (UniProt Q86TP1)	-0.709	-0.433	0.291
SLC20A1 (UniProt Q8WUM9)	0.249	0.0269	-0.23
ATG3 (UniProt Q9NT62)	0.381	0.021	-0.627
SLC7A6OS (UniProt Q96CW6)	-0.344	0.403	-0.000281
MRPL22 (UniProt Q9NWU5)	0.32	0.464	0.467
DNAJC7 (UniProt Q99615)	-0.214	0.475	-0.656
GNAI1 (UniProt P63096)	0.913	1.18	0.0642
NEU1 (UniProt Q99519)	-0.363	-0.25	0.921
FCHO2 (UniProt Q0JRZ9)	-0.472	-0.218	0.405
MSTO1 (UniProt Q9BUK6)	0.101	-0.0527	-0.742
PDS5A (UniProt Q29RF7)	0.543	0.408	-0.428
IDI1 (UniProt Q13907)	1.01	0.458	0.042
ALG2 (UniProt Q9H553)	-1.02	-1.3	-0.992

Target	thermal stability z-score [1, 3]	thermal stability z-score ([1]; arsenate co-treatment: none)	thermal stability z-score [2]
LMTK2 (UniProt Q8IWU2)	-0.465	-0.397	1.04
SLC25A35 (UniProt Q3KQZ1)	0.135	-0.276	0.172
CCT2 (UniProt P78371)	0.119	-0.107	-0.0294
SQRDL (UniProt Q9Y6N5)	-0.541	-1.81	-1.36
COPS7A (UniProt Q9UBW8)	0.334	0.0778	-0.0728
SEC24B (UniProt O95487)	-0.766	-0.328	0.116
SP100 (UniProt P23497)	3.43	0.96	4.5
DYM (UniProt Q7RTS9)	0.487	-0.0128	-0.365
SMC5 (UniProt Q8IY18)	0.427	-0.175	1.83
MYL6B (UniProt P14649)	-0.283	0.233	-1.03
UBE2K (UniProt P61086)	0.398	-0.0311	-0.201
PPIL4 (UniProt Q8WUA2)	-0.441	-0.236	-0.913
UBR3 (UniProt Q6ZT12)	0.0839	0.139	-0.007
COPG2 (UniProt Q9UBF2)	-0.16	-0.253	0.0479
DHRS13 (UniProt Q6UX07)	0.049	0.274	0.0183
REXO4 (UniProt Q9GZR2)	-0.103	-0.118	-0.149
LAMTOR3 (UniProt Q9UHA4)	1.21	0.41	-0.713
HMOX1 (UniProt P09601)	-0.0402	-0.011	-0.107
PANK4 (UniProt Q9NVE7)	-0.399	-0.303	0.112
TERF2 (UniProt Q15554)	-0.0516	-0.042	0.1
HAUS1 (UniProt Q96CS2)	0.0371	0.00541	0.0563
MTMR9 (UniProt Q96QG7)	-0.0303	1.35	-0.12
COG2 (UniProt Q14746)	0.0711	-0.137	0.6
